What was measured:
[1] = test system: rabbit serum obtained by immunizing a rabbit with the SARS-CoV strain Frankfurt 1; assay type: binding; design: Binding of a rabbit serum to linear peptides / Binding of a rabbit serum to looped peptides / Rabbit serum linear peptides / Rabbit serum looped peptides / Binding of a rabbit serum to linear peptides of protein N of SARS-CoV Urbani (Rabbit serum linear peptides) / Binding of a rabbit serum to looped/cyclic peptides of protein N of SARS-CoV Urbani (Rabbit serum looped peptides): unit not given here
[2] = test system: control sera (pooled serum of ten healthy LUMC hospital workers; commercial negative donor pooled serum from the Dutch bloodbank); assay type: binding, human; design: Binding of Control serum LUMC to linear peptides / Binding of Control serum Blood-bank to linear peptides / Binding of Control serum LUMC to looped peptides / Binding of Control Serum Blood-Bank to Looped peptides / Binding of Control serum LUMC to linear peptides of the protein M of SARS-CoV Urbani / Binding of Control serum Blood-bank to linear peptides of the protein M of SARS-CoV Urbani / Binding of Control serum LUMC to looped peptides of the protein M of SARS-CoV Urbani / Binding of Control Serum Blood-Bank to Looped peptides of the protein M of SARS-CoV Urbani: unit not given here
[3] = test system: recombinant human anti-SARS-CoV antibody 03-018; assay type: binding; design: Binding of antibody 03-018 to linear peptides of the N protein of SARS-CoV Urbani / Binding of antibody 03-018 to looped/cyclic peptides of the N protein of SARS-CoV Urbani: unit not given here
[4] = test system: antibodies in sera from SARS patients (sera 1a, 1b, 2, 6, 37, 62, London, SARS-yellow, SARS-green); assay type: binding, human; design: Binding of serum 6 to linear peptides of protein X1 of SARS-CoV Urbani / Binding of serum 37 to linear peptides of protein X1 of SARS-CoV Urbani / Binding of serum 6 to looped/cyclic peptide (PEPSCAN-ELISA) / Binding of serum 37 to looped/cyclic peptide (PEPSCAN-ELISA) / Binding of serum 37 to looped/cyclic peptides of protein X1 of SARS-CoV Urbani / Binding of serum 6 to linear peptides of protein X2 / Binding of serum 37 to linear peptides of protein X2 / Binding of serum 37 to looped/cyclic peptides of protein X2 of SARS-CoV Urbani / Binding of serum 6 to linear peptides of protein M of SARS-CoV Urbani / Binding of serum 37 to linear peptides of protein M of SARS-CoV Urbani / Binding of serum 6 to looped/cyclic peptides of protein M of SARS-CoV Urbani / Binding of serum 37 to looped/cyclic peptides of protein M of SARS-CoV Urbani / Binding of serum 6 to linear peptides of protein X3 of SARS-CoV Urbani / Binding of serum 37 to linear peptides of protein X3 of SARS-CoV Urbani / Binding of serum 37 to looped/cyclic peptides of protein X3 of SARS-CoV Urbani / Binding of serum 6 to linear peptides of protein X4 of SARS-CoV Urbani / Binding of serum 37 to linear peptides of protein X4 of SARS-CoV Urbani / Binding of serum 37 to looped/cyclic peptides of protein X4 of SARS-CoV Urbani / Binding of serum 6 to linear peptides of protein X5 of SARS-CoV Urbani / Binding of serum 37 to linear peptides of protein X5 of SARS-CoV Urbani / Binding of serum 37 to looped/cyclic peptides of protein X5 of SARS-CoV Urbani / Binding of serum 6 to linear peptides of protein N of SARS-CoV Urbani / Binding of serum 37 to linear peptides of protein N of SARS-CoV Urbani / Binding of serum 6 to linear peptide (PEPSCAN-ELISA) / Binding of serum 1a to looped/cyclic peptides of protein N of SARS-CoV Urbani / Binding of serum 1b to looped/cyclic peptides of protein N of SARS-CoV Urbani / Binding of serum 2 to looped/cyclic peptides of protein N of SARS-CoV Urbani / Binding of serum 6 to looped/cyclic peptides of protein N of SARS-CoV Urbani / Binding of serum 37 to looped/cyclic peptides of protein N of SARS-CoV Urbani / Binding of serum 62 to looped/cyclic peptides of protein N of SARS-CoV Urbani / Binding of serum London to looped/cyclic peptides of protein N of SARS-CoV Urbani / Binding of serum SARS-green to looped/cyclic peptides of protein N of SARS-CoV Urbani: unit not given here

| Sequence | Binding of a rabbit serum to linear peptides of protein N of SARS-CoV Urbani (Rabbit serum linear peptides) [1] | Binding of a rabbit serum to looped/cyclic peptides of protein N of SARS-CoV Urbani (Rabbit serum looped peptides) [1] | Binding of antibody 03-018 to linear peptides of the N protein of SARS-CoV Urbani [3] | Binding of antibody 03-018 to looped/cyclic peptides of the N protein of SARS-CoV Urbani [3] | Binding of serum 1a to linear peptides of protein N of SARS-CoV Urbani [4] | Binding of serum 1a to looped/cyclic peptides of protein N of SARS-CoV Urbani [4] | Binding of serum 1b to linear peptides of protein N of SARS-CoV Urbani [4] | Binding of serum 1b to looped/cyclic peptides of protein N of SARS-CoV Urbani [4] | Binding of serum 2 to linear peptides of protein N of SARS-CoV Urbani [4] | Binding of serum 2 to looped/cyclic peptides of protein N of SARS-CoV Urbani [4] | Binding of serum 6 to linear peptides of protein N of SARS-CoV Urbani [4] | Binding of serum 6 to looped/cyclic peptides of protein N of SARS-CoV Urbani [4] | Binding of serum 37 to linear peptides of protein N of SARS-CoV Urbani [4] | Binding of serum 37 to looped/cyclic peptides of protein N of SARS-CoV Urbani [4] | Binding of serum 62 to linear peptides of protein N of SARS-CoV Urbani [4] | Binding of serum 62 to looped/cyclic peptides of protein N of SARS-CoV Urbani [4] | Binding of serum London to linear peptides of protein N of SARS-CoV Urbani [4] | Binding of serum London to looped/cyclic peptides of protein N of SARS-CoV Urbani [4] | Binding of serum SARS-green to linear peptides of protein N of SARS-CoV Urbani [4] | Binding of serum SARS-green to looped/cyclic peptides of protein N of SARS-CoV Urbani [4] | further results |
| --- | --- | --- | --- | --- | --- | --- | --- | --- | --- | --- | --- | --- | --- | --- | --- | --- | --- | --- | --- | --- | --- |
| LTYHGAIKLDDKDPQ | 0.1 | 0.5 | 0.1 | 0.2 | 0.2 | 0.3 | 0.1 | 0.1 | 0.2 | 0.3 | 0.2 | 0.1 | 0.6 | 0.5 | 1.0 | 0.3 | 0.5 | 0.4 | 0.2 | 0.1 | Control Serum Blood-Bank Looped peptides [2]: 0.5; Control serum Blood-bank linear peptides [2]: 0.7; Control serum LUMC linear peptides [2]: 0.6; Control serum LUMC looped peptides [2]: 0.5; Binding of serum SARS-yellow to linear peptides of protein N of SARS-CoV Urbani [4]: 0.7; Binding of serum SARS-yellow to looped/cyclic peptides of protein N of SARS-CoV Urbani [4]: 0.4 |
| QKKQPTVTLLPAADM | 0.2 | 0.7 | 0.1 | 0.3 | 0.3 |  | 0.2 |  | 0.2 |  | 0.2 |  | 0.7 |  | 0.6 |  | 0.6 |  | 0.4 |  | Control Serum Blood-Bank Looped peptides [2]: 0.9; Control serum Blood-bank linear peptides [2]: 0.7; Control serum LUMC linear peptides [2]: 0.6; Control serum LUMC looped peptides [2]: 0.7; Binding of serum SARS-yellow to linear peptides of protein N of SARS-CoV Urbani [4]: 0.5; Recognition of the peptide by sera of SARS-CoV infected individuals, and form (linear, looped/cyclic) in which it is recognized [4]: recognized in looped/cyclic form |
| TYHGAIKLDDKDPQF | 0.1 | 0.2 | 0.1 | 0.1 | 0.3 | 0.2 | 0.1 | 0.1 | 0.1 | 0.2 | 0.2 | 0.1 | 0.8 | 0.3 | 1.1 | 0.2 | 0.6 | 0.3 | 0.4 | 0.0 | Control Serum Blood-Bank Looped peptides [2]: 0.4; Control serum Blood-bank linear peptides [2]: 0.8; Control serum LUMC linear peptides [2]: 0.7; Control serum LUMC looped peptides [2]: 0.4; Binding of serum SARS-yellow to linear peptides of protein N of SARS-CoV Urbani [4]: 0.7; Binding of serum SARS-yellow to looped/cyclic peptides of protein N of SARS-CoV Urbani [4]: 0.2 |
| RQGTDYKHWPQIAQF | 0.2 | 0.4 | 0.1 | 0.2 | 0.3 | 0.5 | 0.2 | 0.4 | 0.2 | 0.5 | 0.2 | 0.3 | 0.7 | 0.8 | 0.8 | 0.9 | 0.7 | 0.5 | 0.3 | 0.4 | Binding of Control Serum Blood-Bank to Looped peptides [2]: 0.7; Binding of Control serum Blood-bank to linear peptides [2]: 0.7; Binding of Control serum LUMC to linear peptides [2]: 0.7; Binding of Control serum LUMC to looped peptides [2]: 0.8; Binding of serum SARS-yellow to linear peptides of protein N of SARS-CoV Urbani [4]: 0.6; Binding of serum SARS-yellow to looped/cyclic peptides of protein N of SARS-CoV Urbani [4]: 0.8 |
| QYNVTQAFGRRGPEQ |  |  | 0.1 | 0.3 |  | 0.4 |  | 0.2 |  | 0.4 |  | 0.4 |  | 0.7 |  | 0.6 |  | 0.5 |  | 0.4 | Recognition of the peptide by the rabbit serum [1]: recognized; Binding of Control Serum Blood-Bank to Looped peptides [2]: 0.8; Binding of Control serum Blood-bank to linear peptides [2]: 0.7; Binding of Control serum LUMC to linear peptides [2]: 0.6; Binding of Control serum LUMC to looped peptides [2]: 0.8; Binding of serum 1a to linear peptide (PEPSCAN-ELISA) [4]: 0.3; Binding of serum 1b to linear peptide (PEPSCAN-ELISA) [4]: 0.1; Binding of serum 2 to linear peptide (PEPSCAN-ELISA) [4]: 0.1; Binding of serum 6 to linear peptide (PEPSCAN-ELISA) [4]: 0.2; Binding of serum 37 to linear peptide (PEPSCAN-ELISA) [4]: 0.6; Binding of serum 62 to linear peptide (PEPSCAN-ELISA) [4]: 0.6; Binding of serum London to linear peptide (PEPSCAN-ELISA) [4]: 0.4; Binding of serum SARS-green to linear peptide (PEPSCAN-ELISA) [4]: 0.5; Binding of serum SARS-yellow to linear peptide (PEPSCAN-ELISA) [4]: 0.6; Binding of serum SARS-yellow to looped/cyclic peptides of protein N of SARS-CoV Urbani [4]: 0.5 |

From US20070128217A1 (priority 2003, published 2007)
